In patent publication US6642250B2, “1,8-naphthyridin-2(1H)-one derivatives” (Grelan Pharmaceutical Co., Ltd., priority 1999, dated 2003):
Where two headings read alike, the source gives them in different places.

Key:
[1] = tested on: actively sensitized guinea pigs; assay: Inhibition of antigen-induced immediate asthmatic response (airway resistance, Konzett-Rossler method); assay type: in vivo, guinea pig; conditions: for inhibition in vivo at 3 mg/kg: Cavia porcellus, po, orally, 60 minutes prior to antigen-challenge, average of 3 animals, read-out: % Reduction of Increase in Airway Resistance; for % reduction of increase in airway resistance: oral administration at a dose of 1 mg/kg
Procedure: (1) Active Sensitization of Guinea Pigs
Male Hartley outbred guinea pigs were sensitized by administering intraperitoneally physiological saline (0.5 ml) containing ovalbumin (1 mg, antigen) and 5×10^9 inactivated Bordetella pertussis dead cells (adjuvant).
Eleven to thirteen days after the first sensitization, 0.05 ml of an ovalbumin solution (1 mg/ml) (ovalbumin is dissolved in physiological saline) was administered to the lateroabdominal region of each guinea pig intracutaneously. An establishment of sensitization was checked relying on cutaneous reaction. Only guinea pigs wherein significant reddening responses occurred 5 to 10 minutes later were employed in the next measurement test for airway resistance.
(2) Measurement for Airway Resistance in Actively Sensitized-Guinea Pigs
The guinea pigs (3 animals per group) actively sensitized in the above step (1) were employed to measure for their airway pressure according to Konzett-Rossler method (Arch. Exp. Path. Pharmakol., 195, 71 (1940)).
Thirteen days after the final sensitization, guinea pigs fasted overnight, and were on the next day anesthetized with a pentobarbital solution (60 mg/1.2 ml/kg, dissolved in physiological saline, intraperitoneal administration). After the guinea pigs were fixed in a supine position, their trachea was incised followed by insertion with one port of a 4-port cannula. Among the remaining 3 ports, 2 ports were connected to an artificial respirator (Model 683, Harvard). The animals were ventilated with 10 ml/kg of air per ventilation at a rate of 60 beats/min via the artificial respirator from the cannula. One port remainder was connected to a respiratory amplifier (AR-601G, Nihon Kohden, Japan) via an airflow resistance tube (TV-241T, Nihon Kohden, Japan) and a differential pressure transducer (TP-602T, Nihon Kohden, Japan) connected with a control box (RY-111S, Nihon Kohden, Japan). From a catheter inserted into a left carotid artery, blood pressures were monitored with a blood pressure measurement unit (AP641G, NEC Corp., Japan) via a blood pressure transducer (TP-300T, Nihon Kohden, Japan), and heart rates were recorded on a thermal recorder (WT-685G, Nihon Kohden, Japan), relying on blood pressure pulse waves after being led to a cardiograph unit (AT601G, Nihon Kohden, Japan).
After airway pressure became stable, an ovalbumin solution (1 mg/ml, dissolved in physiological saline) was administered at a dose of 1 ml/kg via a tube with which the right jugular vein of guinea pigs was cannulated. Each area under airway pressure-time curve (AUC) was obtained by measuring amplitudes of the airway pressure prior to the antigen-challenge, 1, 2, 3, 4, 5, 10, 15 and 20 minutes post-challenge, and each percent increase (%) in airway resistance was further calculated according to the following equation: [formula]
[…] Control groups received only 0.5% CMC—Na solution in an equivalent amount. The pentobarbital-anesthetization and tracheal incision were conducted 30 minutes prior to the antigen-challenge.
Each percent reduction of increase in airway resistance (each test compound-administered group versus control group) was calculated according to the equation given below. The results are shown in Table 2 wherein each value is an average of 3 animals. Rolipram as described in Assay Example 1 was used for the reference compound in this assay. [formula]
For a comparison with compounds as disclosed in JP, A, 63-159382 (1988), the percent reduction of increase in airway resistance was obtained for the compounds of the present invention (oral administration at a dose of 1 mg/kg), the compounds in Table 1 of JP, A, 63-159382 (1988) (oral administration at a dose of 1 mg/kg), and rolipram (reference compound; oral administration at a dose of 3 mg/kg), respectively, in the same assay manner as in the aforementioned Assay Example 2.

[2] = tested on: LPS-induced TNFα production in mouse peritoneal macrophages; assay: Inhibition of TNF-α production in LPS-stimulated macrophages; assay type: cell-based; conditions: Peritoneal macrophage, LPS 0.1 μg/ml, 4 hours
Procedure: In order to measure inhibitory activity on LPS-induced TNFα production in mouse peritoneal macrophages according to Eur. J. Pharmacol., 230, 9-14 (1993), the following assay was employed. 1) Preparation of Mouse Peritoneal Macrophages Ten percent proteose peptone (2 ml/animal) was administered intraperitoneally to male C3H/HeN mice (6- to 8-week-old) for inducing peritoneal macrophages. Four days after the proteose peptone administration, mice were sacrificed by the dislocation of cervical vertebrate, bled with cutting of their carotid artery, douched intraperitoneally with ice-cooled RPMI 1640 (6 ml), massaged, and lavage fluids wherein peritoneal exudate cells suspended were harvested. The resulting cell suspension was centrifuged at 200×g, and obtained cell pellets were treated with a Tris-ammonium buffer for 1 minute to hemolyze erythrocyte contaminants. The resulting cells were washed twice with 10% FBS/RPMI 1640, resuspended, and seeded on 96-well plates (Sumitomo Bakelite, Japan) at 5×10^5 cells/0.2 ml/well. After pre-incubation for 2 hours in an atmosphere of 5% CO2/95% air, each well was rinsed 3 times with PBS(−) to remove non-adhesive cells. 2) Cell Treatment Each test compound was dissolved in DMSO, and then in 10% FBS/RPMI 1640 to make the final DMSO concentration 0.1%. The resultant test compound solution was used herein. After pre-incubation for 0.5 hr in the above test compound solution, an aliquot of macrophages prepared in the above (1) was admixed with LPS (E. coli serotype 0127: B8; Sigma) to adjust the final LPS concentration to 0.1 μg/ml. Four hours later, culture supernatants were harvested and stored at −80° C. Amounts of TNFα in the culture supernatants were measured with a mouse TNFα ELISA kit (Quantikine/trade name; R & D Systems) according to manuals attached to the kit. For control groups, an aliquot of macrophages prepared in the above (1) was admixed with LPS to adjust the final LPS concentration to 0.1 μg/ml and then treated in the same manner as aforementioned. The resultant samples were used in obtaining the concentration of each test compound required for 50% inhibition (IC50) to each control group.

[3] = tested on: Female beagles; assay type: in vivo; conditions: fed female beagles, oral, emesis within 3 hours
Procedure: Female beagles (each group consisting of 3 dogs) as used herein were fed. One hour later, a suspension of each test compound in 0.5% CMC—Na solution was administered orally to the animals in a forced manner. […] Next, each maximum tolerance dose against emesis was obtained. […]

[4] = read-out: IC50 for inhibition of TNF-α production
[5] = read-out: IC50 for inhibition of TNF-α production (molar)

COc1ccc(C2CNC(=O)C2)cc1OC1CCCC1 (single isomer, unassigned) [Rolipram, rolipram, reference compound]
inhibition in vivo at 3 mg/kg [1]: 65%
IC50 [2, 4]: 0.37 µg/mL
IC50 [2, 5]: ~1.3 µM
Maximum Tolerance Dose against Emesis [3]: <0.1 mg/kg

O=c1c(Cc2cccnc2)cc2cccnc2n1-c1cccc([N+](=O)[O-])c1 [Example No. 2, 1-(3-Nitrophenyl)-3-(pyridin-3-ylmethyl)-1,8-naphthyridin-2(1H)-one]
inhibition in vivo at 3 mg/kg [1]: 64%

O=c1c(CCc2cccnc2)cc2cccnc2n1-c1cccc([N+](=O)[O-])c1 [Example No. 5, 1-(3-Nitrophenyl)-3-[2-(pyridin-3-yl)ethyl]-1,8-naphthyridin-2(1H)-one]
inhibition in vivo at 3 mg/kg [1]: 90%
% reduction of increase in airway resistance [1]: 86%

O=c1c(CCc2ccncc2)cc2cccnc2n1-c1cccc([N+](=O)[O-])c1 [Example No. 6, 1-(3-Nitrophenyl)-3-[2-(pyridin-4-yl)ethyl]-1,8-naphthyridin-2(1H)-one]
inhibition in vivo at 3 mg/kg [1]: 87%

O=c1c(CCCc2cccnc2)cc2cccnc2n1-c1cccc([N+](=O)[O-])c1 [Example No. 7, 1-(3-Nitrophenyl)-3-[3-(pyridin-3-yl)propyl]-1,8-naphthyridin-2(1H)-one]
inhibition in vivo at 3 mg/kg [1]: 95%

O=c1c(CCCc2ccncc2)cc2cccnc2n1-c1cccc([N+](=O)[O-])c1 [Example No. 8, 1-(3-Nitrophenyl)-3-[3-(pyridin-4-yl)propyl]-1,8-naphthyridin-2(1H)-one]
inhibition in vivo at 3 mg/kg [1]: 88%
% reduction of increase in airway resistance [1]: 88%
IC50 [2, 4]: 0.34 µg/mL
IC50 [2, 5]: ~0.88 µM
Maximum Tolerance Dose against Emesis [3]: 0.3 mg/kg

CSc1cccc(-n2c(=O)c(CCCc3ccncc3)cc3cccnc32)c1 [Example No. 10, 1-(3-Methylthiophenyl)-3-[3-(pyridin-4-yl)propyl]-1,8-naphthyridin-2(1H)-one]
inhibition in vivo at 3 mg/kg [1]: 82%

O=c1c(CCCCc2cccnc2)cc2cccnc2n1-c1cccc([N+](=O)[O-])c1 [Example No. 14, 1-(3-Nitrophenyl)-3-[4-(pyridin-3-yl)butyl]-1,8-naphthyridin-2(1H)-one]
inhibition in vivo at 3 mg/kg [1]: 92%

O=c1c(CCCCCc2cccnc2)cc2cccnc2n1-c1cccc([N+](=O)[O-])c1 [Example No. 16, 1-(3-Nitrophenyl)-3-[5-(pyridin-3-yl)pentyl]-1,8-naphthyridin-2(1H)-one]
inhibition in vivo at 3 mg/kg [1]: 96%

O=c1c(CCCc2ccncc2)cc2cccnc2n1-c1cccnc1 [Example No. 23, 1-(Pyridin-3-yl)-3-[3-(pyridin-4-yl)propyl]-1,8-naphthyridin-2(1H)-one]
inhibition in vivo at 3 mg/kg [1]: 90%
